Measured values as given in patent US4999363A, “Tricyclic compounds” (priority 1988, dated 1991).

How the values were obtained:
[1] = tested on: thrombus formation on cotton thread; assay: Antithrombotic activity: thrombus formation on cotton thread in extracorporeal circulation path; assay type: in vivo, Wistar male rats; details: oral, rat, 2 hours prior, mean ± standard error, control 25.9 ± 1.2
Description: Effect of a test compound on thrombus formation on cotton thread which was kept in an extracorporeal circulation path for the artery and vein in anesthesized rats was examined in a manner similar to the method of Smith et al. [Br. J. Pharmacol., 77, 29 (1982)].
Wistar male rats weighing 250 to 400 g were anesthesized by intraperitoneal administration of sodium pentobarbital at a dose of 30 mg/kg and an extracorporeal circulation path made of a polyethylene tube having a length of 30 cm extending from the right carotid artery to the left jugular vein was installed. Cotton thread (No. 30) having a length of 5.5 cm was inserted into the circulation path and a weight of thrombus formed on the cotton thread during blood perfusion for 15 minutes was measured. Similar operations were performed twice and the total weight of thrombus formed by the two blood perfusions was shown as the weight of thrombus. […]

[2] = target: T1, TXA2 /prostaglandin H2 receptor (Cavia porcellus, UniProt A0A286Y4I8); assay: Anti-aggregatory effect: inhibition of platelet aggregation induced by U-46619 (TXA2-antagonizing action); assay type: cell-based, guinea pig (Hartley strain); details: minimum concentration inhibiting aggregation by 30% or more; U-46619 0.5-1 μM; guinea pig PRP
T1 construct: platelet rich plasma (PRP) was obtained; endogenous in cells; host or cells: guinea pig (Hartley) platelets in platelet rich plasma
T1 sequence (A0A286Y4I8 1-347): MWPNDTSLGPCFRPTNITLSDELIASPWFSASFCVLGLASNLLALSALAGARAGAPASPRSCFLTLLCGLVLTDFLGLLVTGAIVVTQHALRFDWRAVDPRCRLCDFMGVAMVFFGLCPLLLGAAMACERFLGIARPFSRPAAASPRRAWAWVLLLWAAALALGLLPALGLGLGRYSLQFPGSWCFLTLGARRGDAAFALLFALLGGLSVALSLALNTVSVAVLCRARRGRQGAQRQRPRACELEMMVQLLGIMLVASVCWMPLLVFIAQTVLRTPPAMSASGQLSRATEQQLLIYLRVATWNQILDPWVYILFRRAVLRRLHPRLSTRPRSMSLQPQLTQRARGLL
Description: TEST ON ANTI A[…] (TXA2 -AN[…])
Using guinea pig platelet, influence of the compounds on platelet aggregation induced by U-46619 (9,11-dideoxy-9α,11a-methanoepoxyprostaglandin F2α; manufactured by Cayman Chemical Co., Ltd.) which was a TXA2 /prostaglandin H2 receptor stimulant was examined.
Male guinea pig (Hartley strain; body weight, 300 to 600 g) was anesthesized by intraperitoneal administration of sodium pentobarbital (30 mg/kg) and blood was collected from the descending aorta of the abdomen with a 1/10 volume of 3.8% trisodium citrate. By centrifugation (KC-70: manufactured by Kubota Co., Ltd.) at 800 rpm for 15 minutes, platelet rich plasma (PRP) was obtained, Platelet aggregation induced by U-46619 (0.5-1 μM) was determined by photometry [Born, G.V.R. et al., Nature (London), 194, 927-929 (1962)]. A test compound was pretreated for 3 minutes and the ability to inhibit aggregation was determined. The minimum concentration which inhibits platelet aggregation by 30% or more was defined as the minimum effective concentration (MEC) of the test compound.

[3] = tested on: dd strain male mice; assay: Acute toxicity test (MLD, mortality for seven days); assay type: in vivo; details: minimum lethal dose, 7 days; for Acute Toxicity (MLD) ip: intraperitoneal
Description: Using three dd strain male mice weighing 20±1 g, a test compound was orally (po; 300 mg/kg) or intraperitoneally (ip; 100 mg/kg) administered. MLD (the minimum lethal dose) was determined by observing the mortality for seven days after administration.

[4] = tested on: TXA2 biosynthesis; assay: TXA2 biosynthesis inhibitory test (bovine platelet microsome, TXB2 by radioimmunoassay); assay type: biochemical; details: in 10 μM
Description: TXA2 BIOSYNTHESIS INHIBITORY TEST
After a mixture of 70 μl (40 μg of protein, 100 mM Tris-hydrochloridebuffer, pH 7.4) of bovine platelet microsome and 10 μl (10% methanol-containing 100 mM Tris-hydrochloride buffer) of a test compound solution was settled at 0° C. for 5 minutes, 20 μl of prostaglandin H2 solution (0.1 nmol, in Tris-hydrochloride buffer described above containing 20% acetone) as substrate was added to the mixture. Five minutes after, 2.9 ml of stopping solution [100 mM, Trishydrochloride buffer containing 0.1 μM of OKY-1581; Tromb. Res. 23, 145 (1981)] was added to stop the reaction.
TXA2 was unstable in the buffer solution, and nonenzymatically converted to TXB2. An amount of thromboxane B2 (TXB2) formed in the reaction solution was determined by radioimmunoassay [F. A. Fitzpatrick et al., Methods in Enzymology, 86, 286 (1982)]. An inhibition rate of the test compound was calculated according to the following equation. [formula]
The amount of TXB2 formed in control refers to a value obtained when the same reaction was carried out, using a solvent containing no test compound.
The amount of TXB2 formed in blank refers to a value obtained when the reaction was carried out in the system in which the stopping solution was added prior to adding substrate.

Compound	Weight of Thrombus ([1]; 30 mg/kg) [mg]	Weight of Thrombus ([1]; 100 mg/kg, **P < 0.01) [mg]	TXA2 Antagonizing Activity (MEC) [2] [µg/mL]	Acute Toxicity (MLD) ip [3] [mg/kg]	Acute Toxicity (MLD) po [3] [mg/kg]	TXA2 Biosynthesis Inhibitory Activity Inhibition Rate [4] [%]
O=C(O)COc1ccc(CCNS(=O)(=O)c2ccccc2)cc1 [BM13177]	24.8 ± 1.8	18.9 ± 1.8				
C/C(=C\c1ccc(Cc2cccnc2)cc1)C(=O)O [OKY 1581, reference compound]			30	> 100	> 300	100
O=C(O)c1ccc2c(c1)/C(=C/Cn1ccnc1)c1ccccc1CO2 [Compound E-37b', (E)-11-[2-(1-imidazolyl)ethylidene]-6,11-dihydrodibenz[b,e]oxepin-2-carboxylic acid 0.2 hydrate]			3	> 100	> 300	94
O=C(O)c1ccc2c(c1)C(NCc1cccnc1)c1ccccc1CO2 (stereo not drawn) [Compound 9c, 11-[(3-Pyridyl)methyl]amino-6,11-dihydrodibenz[b,e]oxepin-2-carboxylic acid]			30	> 100	> 300	100
COc1cc2ncn(C/C=C3\c4ccccc4COc4ccc(C(=O)O)cc43)c2cc1OC [Compound E-101b, (E)-11-[2-(5,6-Dimethoxy-1-benzimidazolyl)ethylidene]-6,11-dihydrodibenz[b,e]oxepin-2-carboxylic acid]			0.3	> 100	> 300	17
COc1ccc2ncn(C/C=C3\c4ccccc4COc4ccc(C(=O)O)cc43)c2c1 [Compound E-62b, (E)-11-[2-(6-Methoxy-1-benzimidazolyl)ethylidene]-6,11-dihydrodibenz[b,e]oxepin-2-carboxylic acid]			1			11
Cn1cnnc1SC/C=C1\c2ccccc2COc2ccc(C(=O)O)cc21 [Compound E-156b, (E)-11-[2-[(4-Methyl-4H-1,2,4-triazol-3-yl)thio]ethylidene]-6,11-dihydrodibenz[b,e]oxepin-2-carboxylic acid]			1.0	> 100	> 300	-10
O=C(O)c1ccc2c(c1)C(=NCc1cccnc1)c1ccccc1CO2 [Compound 25b, 11-[(3-Pyridyl)methyl]imino-6,11-dihydrodibenz[b,e]oxepin-2-carboxylic acid]			1	> 100	> 300	100
COc1ccc2c(c1)ncn2C/C=C1\c2ccccc2COc2ccc(C(=O)O)cc21 [Compound E-61b, (E)-11-[2-(5-Methoxy-1-benzimidazolyl)ethylidene]-6,11-dihydrodibenz[b,e]oxepin-2-carboxylic acid]			0.1			1
CN(C)CC/C=C1/c2ccccc2COc2ccc(CC(=O)O)cc21 [KW 4679, reference compound]			30	> 100	> 300	1
O=C(O)Cc1ccc(CCNS(=O)(=O)c2ccc(Cl)cc2)cc1 [BM13505, reference compound]			0.1	> 100	> 300	8
O=C(O)c1ccc2c(c1)C(SCc1cccnc1)c1ccccc1CO2 (stereo not drawn) [Compound 14b, 11-[(3-Pyridyl)methyl]thio-6,11-dihydrodibenz[b,e]oxepin-2-carboxylic acid]			3	> 100	> 300	100
